Experimental data taken from US12162935B2, “Regimens, compositions and methods with capsaicin and TNF-alpha inhibitor” (priority 2018, dated 2024).

Tests used:
CB2 receptor = assay: Immunoblotting for CB1 and CB2 receptors; assay type: cell-based, mouse; settings: capsaicin 2.5 μM 24 h
Procedure: FIG. 10.A. UBOC-1 cells were treated with capsaicin (2.5 μM) for 24 h. Total protein was extracted and immunoblotting was performed for CB1 and CB2 receptors. B-actin was used for housekeeping and loading control. Capsaicin increased CB2 receptor staining. FIG. 10.B. Cochleae were harvested from rats treated with either oral PBS or oral capsaicin (20 mg/kg) for 24 h. Total RNA was harvested, converted to c-DNA and probed for CB2 receptor expression by q-PCR. GAPDH was used as housekeeping gene. […] FIG. 10.C. and FIG. 10.D. Cochleae were harvested from rats treated with PBS, fixed in 4% paraformaldehyde in PBS for 8 h. They were then decalcified in EDTA (10 mM), and mid modiolar sections of the cochleae were probed for the cannabinoid receptors subtypes, CB1 (FIG. 10.C.) and CB2 (FIG. 10.D.), while nuclei were stained with DAPI. Fluorescent images were obtained with a Leica confocal microscope. […] Magnification for OHC, spiral ganglion cells and stria vascularis (40×). Similar images were obtained from 3 different animals.
Total cell lysates were prepared using ice-cold lysis buffer containing 50 mM Tris HCl, 10 mM MgCl2 and 1 mM EDTA in the presence of protease inhibitors mixture and phosphatase inhibitor 1 (1:100) (Sigma, St. Louis, MO). The lysates were kept on ice for 5 min followed by centrifugation. The clear supernatant was transferred to a clean tube and discarded the pellet. […]

TRPV1 = TRPV1 (Homo sapiens, UniProt Q8NER1); assay: Ca2+ imaging (Fluo-4AM) in HEKVR1 cells; assay type: cell-based; settings: capsaicin 2.5 μM
Sequence of TRPV1 (Q8NER1 whole entry, species assumed): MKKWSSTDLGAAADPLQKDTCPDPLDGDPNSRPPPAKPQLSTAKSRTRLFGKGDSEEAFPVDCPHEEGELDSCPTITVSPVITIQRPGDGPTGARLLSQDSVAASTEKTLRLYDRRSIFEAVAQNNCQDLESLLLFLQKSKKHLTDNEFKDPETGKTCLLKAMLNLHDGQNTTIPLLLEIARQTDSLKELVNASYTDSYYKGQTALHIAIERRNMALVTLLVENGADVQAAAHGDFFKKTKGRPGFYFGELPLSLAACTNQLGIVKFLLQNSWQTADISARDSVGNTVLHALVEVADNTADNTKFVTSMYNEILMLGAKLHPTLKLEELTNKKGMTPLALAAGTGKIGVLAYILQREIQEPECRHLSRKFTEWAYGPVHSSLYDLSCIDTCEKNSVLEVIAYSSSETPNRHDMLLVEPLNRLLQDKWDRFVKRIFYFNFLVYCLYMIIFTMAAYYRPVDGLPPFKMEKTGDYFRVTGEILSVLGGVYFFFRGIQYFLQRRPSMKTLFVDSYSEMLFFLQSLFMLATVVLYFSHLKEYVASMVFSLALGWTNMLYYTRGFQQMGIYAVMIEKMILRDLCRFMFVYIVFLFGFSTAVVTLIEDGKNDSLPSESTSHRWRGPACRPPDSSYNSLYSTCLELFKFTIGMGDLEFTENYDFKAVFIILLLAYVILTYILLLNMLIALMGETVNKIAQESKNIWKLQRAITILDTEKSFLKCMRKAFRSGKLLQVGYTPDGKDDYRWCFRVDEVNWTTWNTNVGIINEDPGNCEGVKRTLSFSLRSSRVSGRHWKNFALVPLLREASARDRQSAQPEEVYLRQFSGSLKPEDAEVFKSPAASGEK
From the text: NE has been linked to immediate increase in ROS generation and persistent oxidative stress in the cochlea2, leading to generation of reactive oxygen species such as: hydroxyl […] (OH^−), superoxide anion (O^2—) and hydrogen peroxide (H2O2).

`COc1cc(CNC(=O)CCCC/C=C/C(C)C)ccc1O` [capsaicin, 8-methyl-N-vanillyl-trans-6-nonenamide] was tested, and the CB2 expression (CB2 receptor) was “increased CB2 expression” and the “increase in Ca^2+ over basal fluorescence” value (TRPV1) was 741±22%.
